Test results as given in US11247990B1, “Bicyclic fused pyridine compounds as inhibitors of TAM kinases” (ARRAY BIOPHARMA INC., priority 2017, dated 2022).

Columns and labels:
Details in all cases: averaged IC50
[1] = molecular target: His-tagged recombinant human AXL cytoplasmic domain (Homo sapiens (Human), UniProt P30530); experiment: AXL Enzyme Assay (LanthaScreen Eu Kinase Binding, TR-FRET)
Procedure, shortened: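 Compound displacement measured by TR-FRET after 60 min at 22 °C, using Eu-based LanthaScreen binding technology. Ratiometric emission converted to percent of control, fitted to a 4-parameter logistic curve, with IC50 at 50 POC.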

[2] = molecular target: His-tagged recombinant human MER cytoplasmic domain (Homo sapiens (Human), UniProt Q12866); experiment: MER Enzyme Assay (LanthaScreen Eu Kinase Binding, TR-FRET)
Procedure, shortened: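 Percent of control, derived from ratiometric TR-FRET emission, was fitted to a 4-parameter logistic curve and IC50 taken at 50 POC. Binding was read after 60 min at 22 °C using Eu-based LanthaScreen technology and recombinant His-tagged MER cytoplasmic domain.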

[3] = molecular target: GST-tagged recombinant human TYRO3 kinase domain (Homo sapiens (Human), UniProt Q06418); experiment: TYRO3 Enzyme Assay (LanthaScreen Eu Kinase Binding, TR-FRET)
Procedure, shortened: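 LanthaScreen Eu binding (tracer displacement) format read by TR-FRET after 60 min at 22 °C. Emission ratio converted to percent of control; IC50 taken where a 4-parameter logistic fit crosses 50 POC.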

Chain of GST-tagged recombinant human TYRO3 kinase domain (Q06418 518-790): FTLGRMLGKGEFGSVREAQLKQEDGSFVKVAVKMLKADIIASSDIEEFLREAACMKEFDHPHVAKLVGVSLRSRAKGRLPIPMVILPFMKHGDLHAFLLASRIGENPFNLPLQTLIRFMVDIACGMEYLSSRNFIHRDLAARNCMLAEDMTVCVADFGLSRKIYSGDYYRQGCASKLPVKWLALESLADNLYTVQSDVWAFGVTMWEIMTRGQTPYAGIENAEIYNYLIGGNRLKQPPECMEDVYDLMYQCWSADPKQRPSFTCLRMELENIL
Chain of His-tagged recombinant human MER cytoplasmic domain (Q12866 527-999): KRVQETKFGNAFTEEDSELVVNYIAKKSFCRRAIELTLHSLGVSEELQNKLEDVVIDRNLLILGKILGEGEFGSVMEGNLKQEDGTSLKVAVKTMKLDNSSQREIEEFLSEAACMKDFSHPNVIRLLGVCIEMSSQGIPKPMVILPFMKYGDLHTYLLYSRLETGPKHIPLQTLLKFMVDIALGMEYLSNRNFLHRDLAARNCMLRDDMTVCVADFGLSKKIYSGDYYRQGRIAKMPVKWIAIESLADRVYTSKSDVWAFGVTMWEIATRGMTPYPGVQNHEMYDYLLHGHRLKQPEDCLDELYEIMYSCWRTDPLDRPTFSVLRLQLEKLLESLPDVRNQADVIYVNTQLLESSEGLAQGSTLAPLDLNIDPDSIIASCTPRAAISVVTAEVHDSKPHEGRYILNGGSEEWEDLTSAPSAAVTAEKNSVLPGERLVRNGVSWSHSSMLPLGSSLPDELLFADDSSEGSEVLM
Chain of His-tagged recombinant human AXL cytoplasmic domain (P30530 473-894): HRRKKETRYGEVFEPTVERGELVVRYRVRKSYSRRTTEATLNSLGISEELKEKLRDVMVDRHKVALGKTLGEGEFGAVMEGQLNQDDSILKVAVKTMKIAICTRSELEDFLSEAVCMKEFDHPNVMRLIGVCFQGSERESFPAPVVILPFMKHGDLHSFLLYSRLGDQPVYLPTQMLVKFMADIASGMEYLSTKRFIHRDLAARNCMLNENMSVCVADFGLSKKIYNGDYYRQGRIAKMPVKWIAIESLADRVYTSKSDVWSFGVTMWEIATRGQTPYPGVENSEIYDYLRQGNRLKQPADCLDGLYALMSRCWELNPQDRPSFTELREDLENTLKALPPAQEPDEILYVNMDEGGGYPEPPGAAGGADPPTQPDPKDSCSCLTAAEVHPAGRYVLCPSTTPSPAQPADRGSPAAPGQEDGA

Structure (SMILES) | IC50 [1] | IC50 [2] | IC50 [3]
CCNc1cc2c(cn1)c(-c1cnn(C[C@@H](O)CO)c1)nn2[C@H]1CC[C@@H](Oc2cccc(F)c2Cl)CC1 [Example 437, (R)-3-(4-(1-((1s,4S)-4-(2-chloro-3-fluorophenoxy)cyclohexyl)-6-(ethylamino)-1H-pyrazolo[4,3-c]pyridin-3-yl)-1H-pyrazol-1-yl)propane-1,2-diol] | < 10 nM | < 10 nM | 10 to 100 nM
CCNc1cc2c(cn1)c(-c1cnn(C[C@@H](O)CO)c1)nn2[C@H]1CC[C@@H](Oc2cccc(Cl)c2Cl)CC1 [Example 439] | < 10 nM | < 10 nM | 10 to 100 nM
CCNc1cc2c(cn1)c(-c1cnn(C[C@@H](O)C(C)(C)O)c1)nn2[C@H]1CC[C@@H](Oc2ccccc2F)CC1 [Example 442, (R)-1-(4-(6-(ethylamino)-1-((1s,4S)-4-(2-fluorophenoxy)cyclohexyl)-1H-pyrazolo[4,3-c]pyridin-3-yl)-1H-pyrazol-1-yl)-3-methylbutane-2,3-diol] | < 10 nM | < 10 nM | 10 to 100 nM
CCNc1cc2c(cn1)c(-c1cnn(C[C@@H](O)C(C)(C)O)c1)nn2[C@H]1CC[C@@H](Oc2cccc(F)c2F)CC1 [Example 446, (R)-1-(4-(1-((1s,4S)-4-(2,3-difluorophenoxy)cyclohexyl)-6-(ethylamino)-1H-pyrazolo[4,3-c]pyridin-3-yl)-1H-pyrazol-1-yl)-3-methylbutane-2,3-diol] | < 10 nM | < 10 nM | < 10 nM
CNc1cc2c(cn1)c(-c1cnn(C)c1)nn2[C@@H]1CC[C@H](Oc2ccccc2)[C@@H](O)C1 [Example 471A, (1S,2S,5R)-5-(3-(1-methyl-1H-pyrazol-4-yl)-6-(methylamino)-1H-pyrazolo[4,3-c]pyridin-1-yl)-2-phenoxycyclohexan-1-ol] | < 10 nM | < 10 nM | 10 to 100 nM
CCNc1cc2c(cn1)c(N1CC[C@@H](O)C1)nn2[C@H]1CC[C@@H](Oc2nccc(C(F)(F)F)c2F)CC1 [Example 488, (R)-1-(6-(ethylamino)-1-((1s,4S)-4-((3-fluoro-4-(trifluoromethyl)pyridin-2-yl)oxy)cyclohexyl)-1H-pyrazolo[4,3-c]pyridin-3-yl)pyrrolidin-3-ol] | < 10 nM | < 10 nM | 10 to 100 nM
CCNc1cc2c(cn1)c(N1CC[C@H](NC)C1)nn2[C@H]1CC[C@@H](Oc2cccc(C(F)(F)F)c2F)CC1 [Example 491, N-ethyl-1-((1s,4R)-4-(2-fluoro-3-(trifluoromethyl)phenoxy)cyclohexyl)-3-((S)-3-(methylamino)pyrrolidin-1-yl)-1H-pyrazolo[4,3-c]pyridin-6-amine] | < 10 nM | < 10 nM | 10 to 100 nM
CCNc1cc2c(cn1)c(N1CC[C@H](N)C1)nn2[C@H]1CC[C@@H](Oc2nccc(C(F)(F)F)c2F)CC1 [Example 493, 3-((S)-3-aminopyrrolidin-1-yl)-N-ethyl-1-((1s,4R)-4-((3-fluoro-4-(trifluoromethyl)pyridin-2-yl)oxy)cyclohexyl)-1H-pyrazolo[4,3-c]pyridin-6-amine] | < 10 nM | < 10 nM | 10 to 100 nM
CNc1cc2c(cn1)c(N1CCNCC1)nn2[C@H]1CC[C@@H](Oc2nccc(C(F)(F)F)c2F)CC1 [Example 495, 1-((1s,4s)-4-((3-fluoro-4-(trifluoromethyl)pyridin-2-yl)oxy)cyclohexyl)-N-methyl-3-(piperazin-1-yl)-1H-pyrazolo[4,3-c]pyridin-6-amine] | < 10 nM | < 10 nM | < 10 nM
CCNc1cc2c(cn1)c(-c1cnn(CCN3CCN(C)CC3)c1)nn2[C@H]1CC[C@@H](Oc2nccc(C(F)(F)F)c2F)CC1 [Example 496] | < 10 nM | < 10 nM | < 10 nM

Results, then the molecule that gave them:

IC50 [1] | IC50 [2] | IC50 [3] | Structure (SMILES)
< 10 nM | < 10 nM | < 10 nM | CCNc1cc2c(cn1)c(-c1cnn(C[C@@H](O)CO)c1)nn2[C@H]1CC[C@@H](Oc2cccc(Cl)c2F)CC1 [Example 434, (R)-3-(4-(1-((1s,4S)-4-(3-chloro-2-fluorophenoxy)cyclohexyl)-6-(ethylamino)-1H-pyrazolo[4,3-c]pyridin-3-yl)-1H-pyrazol-1-yl)propane-1,2-diol]
< 10 nM | < 10 nM | 10 to 100 nM | CCNc1cc2c(cn1)c(-c1cnn(C[C@@H](O)CO)c1)nn2[C@H]1CC[C@@H](Oc2ccc(F)cc2Cl)CC1 [Example 436, (R)-3-(4-(1-((1s,4S)-4-(2-chloro-4-fluorophenoxy)cyclohexyl)-6-(ethylamino)-1H-pyrazolo[4,3-c]pyridin-3-yl)-1H-pyrazol-1-yl)propane-1,2-diol]
< 10 nM | < 10 nM | 10 to 100 nM | CCNc1cc2c(cn1)c(-c1cnn(C[C@H](O)C(C)(C)O)c1)nn2[C@H]1CC[C@@H](Oc2ccccc2F)CC1 [Example 440, (S)-1-(4-(6-(ethylamino)-1-((1s,4R)-4-(2-fluorophenoxy)cyclohexyl)-1H-pyrazolo[4,3-c]pyridin-3-yl)-1H-pyrazol-1-yl)-3-methylbutane-2,3-dioI]
< 10 nM | < 10 nM | 10 to 100 nM | CCNc1cc2c(cn1)c(-c1cnn(C[C@H](O)CO)c1)nn2[C@H]1CC[C@@H](Oc2ccc(F)cc2F)CC1 [Example 444, (S)-3-(4-(1-((1s,4R)-4-(2,4-difluorophenoxy)cyclohexyl)-6-(ethylamino)-1H-pyrazolo[4,3-c]pyridin-3-yl)-1H-pyrazol-1-yl)propane-1,2-diol]
< 10 nM | < 10 nM | < 10 nM | CCNc1cc2c(cn1)c(-c1cnn(C[C@H](O)C(C)(C)O)c1)nn2[C@H]1CC[C@@H](Oc2cccc(F)c2F)CC1 [Example 445, (S)-1-(4-(1-((1s,4R)-4-(2,3-difluorophenoxy)cyclohexyl)-6-(ethylamino)-1H-pyrazolo[4,3-c]pyridin-3-yl)-1H-pyrazol-1-yl)-3-methylbutane-2,3-diol]
< 10 nM | < 10 nM | 10 to 100 nM | CCNc1cc2c(cn1)c(-c1cnn(C[C@@H](O)C(C)(C)O)c1)nn2[C@H]1CC[C@@H](Oc2ccc(F)cc2F)CC1 [Example 447, (R)-1-(4-(1-((1s,4S)-4-(2,4-difluorophenoxy)cyclohexyl)-6-(ethylamino)-1H-pyrazolo[4,3-c]pyridin-3-yl)-1H-pyrazol-1-yl)-3-methylbutane-2,3-diol]
< 10 nM | < 10 nM | 10 to 100 nM | CCNc1cc2c(cn1)c(-c1cnn(C[C@H](O)C(C)(C)O)c1)nn2[C@H]1CC[C@@H](Oc2ccc(F)cc2F)CC1 [Example 448, (S)-1-(4-(1-((1s,4S)-4-(2,4-difIuorophenoxy)cyclohexyl)-6-(ethylamino)-1H pyrazolo[4,3-c]pyridin-3-yl)-1H-pyrazol-1-yl)-3-methylbutane-2,3-diol]
< 10 nM | < 10 nM | 10 to 100 nM | CNc1cc2c(cn1)c(-c1cnn(C)c1)nn2[C@H]1CC[C@@H](Oc2ccccc2)[C@H](O)C1 [Example 471B, (1R,2R,5S)-5-(3-(1-methyl-1H-pyrazol-4-yl)-6-(methylamino)-1H-pyrazolo[4,3-c]pyridin-1-yl)-2-phenoxycyclohexan-1-ol]
< 10 nM | < 10 nM | < 10 nM | CCNc1cc2c(cn1)c(-c1cnn(C[C@@H](O)CO)c1)nn2[C@H]1CC[C@@H](Oc2nccc(C#N)c2F)CC1 [Example 487, 2-(((1S,4s)-4-(3-(1-((R)-2,3-dihydroxypropyl)-1H-pyrazol-4-yl)-6-(ethylamino)-1H-pyrazolo[4,3-c]pyridin-1-yl)cyclohexyl)oxy)-3-fluoroisonicotinonitrile]
< 10 nM | < 10 nM | 10 to 100 nM | CCNc1cc2c(cn1)c(N1CCC(N3CCN(C)CC3)CC1)nn2[C@H]1CC[C@@H](Oc2nccc(C(F)(F)F)c2F)CC1 [Example 489, N-ethyl-1-((1s,4s)-4((3-fluoro-4-(trifluoromethyl)pyridin-2-yl)oxy)cyclohexyl)-3-(4-(4-methylpiperazin-1-yl)piperidin-1-yl)-1H-pyrazolo[4,3-c]pyridin-6-amine]
< 10 nM | < 10 nM | < 10 nM | CCNc1cc2c(cn1)c(N1CCNCC1)nn2[C@H]1CC[C@@H](Oc2cccc(C(F)(F)F)c2F)CC1 [Example 490, N-ethyl-1-((1s,4s)-4-(2-fluoro-3-(trifluoromethyl)phenoxy)cyclohexyl)-3-(piperazin-1-yl)-1H-pyrazolo[4,3-c]pyridin-6-amine]
< 10 nM | < 10 nM | 10 to 100 nM | CCNc1cc2c(cn1)c(N1CC[C@@H](NC)C1)nn2[C@H]1CC[C@@H](Oc2cccc(C(F)(F)F)c2F)CC1 [Example 492, N-ethyl-1-((1s,4S)-4-(2-fluoro-3-(trifluoromethyl)phenoxy)cyclohexyl)-3-((R)-3-(methylamino)pyrrolidin-1-yl)-1H-pyrazolo[4,3-c]pyridin-6-amine]
< 10 nM | < 10 nM | 10 to 100 nM | CCNc1cc2c(cn1)c(N1CC[C@@H](N)C1)nn2[C@H]1CC[C@@H](Oc2nccc(C(F)(F)F)c2F)CC1 [Example 494, 3-((R)-3-aminopyrrolidin-1-yl)-N-ethyl-1-((1s,4S)-4-((3-fluoro-4-(trifluoromethyl)pyridin-2-yl)oxy)cyclohexyl)-1H-pyrazolo[4,3-c]pyridin-6-amine]
< 10 nM | < 10 nM | < 10 nM | CCNc1cc2c(cn1)c(-c1cnn(C)c1)nn2[C@H]1CC[C@@H](Oc2cccc(C#N)c2F)CC1 [Example 497]
